Assay results taken from patent US7022843B1, “β,β′-dihydroxy meso-substituted chlorins, isobacteriochlorins, and bacteriochlorins” (priority 1999, dated 2006).
Values joined by “and” are separate entries in the source; they are usually repeats but may differ in a detail not shown here. Equal values may be shown once. Read-outs that look alike come from different tables or passages of the source.

Tests used:
L1210 cells [1] = assay: Dark cytotoxicity in L1210 cells (plates wrapped in aluminum foil); format: cell-based
Procedure: The above compounds were also tested for dark toxicity. Dark toxicity refers to the toxicity of the drug to cells in the absence of light. This toxicity is, therefore, not due to singlet oxygen mediated cellular damage.
(§1) Phototoxicity was determined with L11210 cells in the presence of the compound as follows: the L1210 cells were exposed to varying concentrations of the compounds in 96-well microtiter plates for one hour at 37° C. and 5% CO2. No fetal calf serum (FCS) was added at this time. The plate was then illuminated for one hour after which a 10% aqueous FCS solution was added to the wells. The plates were then returned to the CO2 incubator overnight. After incubation, the cells were assayed for viability using the MTT assay (Mossman, T. J. Immunol. Meth. 1983, 65, 55).
Dark cytotoxicity was determined while the plates were wrapped in aluminum foil while under the light source.

L1210 cells [2] = assay: Phototoxicity in L1210 cells, MTT viability assay; format: cell-based; details: phototoxicity, L1210 cells
Procedure: The above described compounds were tested in vitro for phototoxicity and dark toxicity in L1210 cells as described in the Example section below. Twenty four compounds which were tested for cytotoxicity are listed in Table 3 below along with BPD-MA.
as §1

[3] = 1 h exposure without FCS, 1 h illumination, MTT

OC1c2nc(c(-c3ccccc3)c3ccc([nH]3)c(-c3ccccc3)c3nc(c(-c4ccccc4)c4ccc([nH]4)c2-c2ccccc2)C=C3)C1O (centres unmarked) [Compound 3, H2TPC(OH)2]
LD50dark (L1210 cells [1]): 19000 ng/mL | LD20dark (L1210 cells [1]; L1210 cells, absence of light): 7000 ng/mL | LD50 (L1210 cells [2]; [3]): 2.78 M and 1800 ng/mL | LD50 (L1210 cells [2]; Table 4): 1800 ng/mL

O=[N+]([O-])c1cccc(-c2c3nc(c(-c4cccc([N+](=O)[O-])c4)c4ccc([nH]4)c(-c4cccc([N+](=O)[O-])c4)c4nc(c(-c5cccc([N+](=O)[O-])c5)c5ccc2[nH]5)C(O)C4O)C=C3)c1 (centres unmarked) [Compound 4, T(m-NO2)PC(OH)2]
LD50dark (L1210 cells [1]): 15000 ng/mL | LD20dark (L1210 cells [1]; L1210 cells, absence of light): 4500 ng/mL | LD50 (L1210 cells [2]; [3]): 5.43 M and 4500 ng/mL | LD50 (L1210 cells [2]; Table 4): 4500 ng/mL

OC1c2nc(c(-c3ccc(Br)cc3)c3ccc([nH]3)c(-c3ccc(Br)cc3)c3nc(c(-c4ccc(Br)cc4)c4ccc([nH]4)c2-c2ccc(Br)cc2)C=C3)C1O (centres unmarked) [Compound 5, T(p-Br)PC(OH)2]
LD50dark (L1210 cells [1]): 8000 ng/mL | LD20dark (L1210 cells [1]; L1210 cells, absence of light): 1900 ng/mL | LD50 (L1210 cells [2]; [3]): 6.22 M and 6000 ng/mL | LD50 (L1210 cells [2]; Table 4): 6000 ng/mL

OC1c2nc(c(-c3cccc(Br)c3)c3ccc([nH]3)c(-c3cccc(Br)c3)c3nc(c(-c4cccc(Br)c4)c4ccc([nH]4)c2-c2cccc(Br)c2)C=C3)C1O (centres unmarked) [Compound 6, T(m-Br)PC(OH)2]
LD50dark (L1210 cells [1]): 4000 ng/mL | LD20dark (L1210 cells [1]; L1210 cells, absence of light): 1500 ng/mL | LD50 (L1210 cells [2]; [3]): 4.15 M and 4000 ng/mL | LD50 (L1210 cells [2]; Table 4): 4000 ng/mL

OC1c2nc(c(-c3cccc(F)c3)c3ccc([nH]3)c(-c3cccc(F)c3)c3nc(c(-c4cccc(F)c4)c4ccc([nH]4)c2-c2cccc(F)c2)C=C3)C1O (centres unmarked) [Compound 7, T(m-F)PC(OH)2]
LD50dark (L1210 cells [1]): 6000 ng/mL | LD20dark (L1210 cells [1]; L1210 cells, absence of light): 1500 ng/mL | LD50 (L1210 cells [2]; [3]): 6.87 M and 5000 ng/mL | LD50 (L1210 cells [2]; Table 4): 5000 ng/mL

OC1c2nc(c(-c3ccccc3F)c3ccc([nH]3)c(-c3ccccc3F)c3nc(c(-c4ccccc4F)c4ccc([nH]4)c2-c2ccccc2F)C=C3)C1O (centres unmarked) [Compound 8, T(o-F)PC(OH)2]
LD50dark (L1210 cells [1]): 15000 ng/mL | LD20dark (L1210 cells [1]; L1210 cells, absence of light): 5000 ng/mL | LD50 (L1210 cells [2]; [3]): 4.17 M and 3000 ng/mL | LD50 (L1210 cells [2]; Table 4): 3000 ng/mL

OC1c2nc(c(-c3c(F)c(F)c(F)c(F)c3F)c3ccc([nH]3)c(-c3c(F)c(F)c(F)c(F)c3F)c3nc(c(-c4c(F)c(F)c(F)c(F)c4F)c4ccc([nH]4)c2-c2c(F)c(F)c(F)c(F)c2F)C=C3)C1O (centres unmarked) [Compound 9, TF5PC(OH)2]
LD50dark (L1210 cells [1]): 12000 ng/mL | LD20dark (L1210 cells [1]; L1210 cells, absence of light): 5000 ng/mL | LD50 (L1210 cells [2]; [3]): 1.79 M and 1800 ng/mL | LD50 (L1210 cells [2]; Table 4): 100 ng/mL

Oc1ccc(-c2c3nc(c(-c4ccc(O)cc4)c4ccc([nH]4)c(-c4ccc(O)cc4)c4nc(c(-c5ccc(O)cc5)c5ccc2[nH]5)C(O)C4O)C=C3)cc1 (centres unmarked) [Compound 10, T(p-OH)PC(OH)2]
LD50dark (L1210 cells [1]): 15000 ng/mL | LD20dark (L1210 cells [1]; L1210 cells, absence of light): 5000 ng/mL | LD50 (L1210 cells [2]; [3]): 4.92 M and 3500 ng/mL | LD50 (L1210 cells [2]; Table 4): 3500 ng/mL

Oc1cccc(-c2c3nc(c(-c4cccc(O)c4)c4ccc([nH]4)c(-c4cccc(O)c4)c4nc(c(-c5cccc(O)c5)c5ccc2[nH]5)C(O)C4O)C=C3)c1 (centres unmarked) [Compound 11, T(m-OH)PC(OH)2]
LD50dark (L1210 cells [1]): 12500 ng/mL | LD20dark (L1210 cells [1]; L1210 cells, absence of light): 10000 ng/mL | LD50 (L1210 cells [2]; [3]): 0.0211 M and 15 ng/mL | LD50 (L1210 cells [2]; Table 4): 15 ng/mL

COC(=O)c1ccc(-c2c3nc(c(-c4ccc(C(=O)OC)cc4)c4ccc([nH]4)c(-c4ccc(C(=O)OC)cc4)c4nc(c(-c5ccc(C(=O)OC)cc5)c5ccc2[nH]5)C(O)C4O)C=C3)cc1 (centres unmarked) [Compound 12, T(p-CO2Me)PC(OH)2]
LD20dark (L1210 cells [1]; L1210 cells, absence of light): 3000 ng/mL | LD50dark (L1210 cells [1]; L1210 cells, absence of light): 15000 ng/mL | LD50 (L1210 cells [2]; [3]): 0.136 M and 120 ng/mL | LD50 (L1210 cells [2]; Table 4): 120 ng/mL

COc1cccc(-c2c3nc(c(-c4cccc(OC)c4)c4ccc([nH]4)c(-c4cccc(OC)c4)c4nc(c(-c5cccc(OC)c5)c5ccc2[nH]5)C(O)C4O)C=C3)c1 (centres unmarked) [Compound 15, T(m-OCH3)PC(OH)2]
LD50 (L1210 cells [2]; [3]): 1.3 M and 1000 ng/mL
